Columns and labels:
[1] = tested on: rabbit serum obtained by immunizing a rabbit with the SARS-CoV strain Frankfurt 1; type: binding; design: Binding of a rabbit serum to linear peptides / Binding of a rabbit serum to looped peptides / Rabbit serum linear peptides / Rabbit serum looped peptides / Binding of a rabbit serum to linear peptides of protein N of SARS-CoV Urbani (Rabbit serum linear peptides) / Binding of a rabbit serum to looped/cyclic peptides of protein N of SARS-CoV Urbani (Rabbit serum looped peptides): unit not given here
[2] = tested on: recombinant human anti-SARS-CoV antibody 03-018; type: binding; design: Binding of antibody 03-018 to linear peptides of the N protein of SARS-CoV Urbani / Binding of antibody 03-018 to looped/cyclic peptides of the N protein of SARS-CoV Urbani: unit not given here
[3] = tested on: control sera (pooled serum of ten healthy LUMC hospital workers; commercial negative donor pooled serum from the Dutch bloodbank); type: binding, human; design: Binding of Control serum LUMC to linear peptides / Binding of Control serum Blood-bank to linear peptides / Binding of Control serum LUMC to looped peptides / Binding of Control Serum Blood-Bank to Looped peptides / Binding of Control serum LUMC to linear peptides of the protein M of SARS-CoV Urbani / Binding of Control serum Blood-bank to linear peptides of the protein M of SARS-CoV Urbani / Binding of Control serum LUMC to looped peptides of the protein M of SARS-CoV Urbani / Binding of Control Serum Blood-Bank to Looped peptides of the protein M of SARS-CoV Urbani: unit not given here
[4] = tested on: antibodies in sera from SARS patients (sera 1a, 1b, 2, 6, 37, 62, London, SARS-yellow, SARS-green); type: binding, human; design: Binding of serum 6 to linear peptides of protein X1 of SARS-CoV Urbani / Binding of serum 37 to linear peptides of protein X1 of SARS-CoV Urbani / Binding of serum 6 to looped/cyclic peptide (PEPSCAN-ELISA) / Binding of serum 37 to looped/cyclic peptide (PEPSCAN-ELISA) / Binding of serum 37 to looped/cyclic peptides of protein X1 of SARS-CoV Urbani / Binding of serum 6 to linear peptides of protein X2 / Binding of serum 37 to linear peptides of protein X2 / Binding of serum 37 to looped/cyclic peptides of protein X2 of SARS-CoV Urbani / Binding of serum 6 to linear peptides of protein M of SARS-CoV Urbani / Binding of serum 37 to linear peptides of protein M of SARS-CoV Urbani / Binding of serum 6 to looped/cyclic peptides of protein M of SARS-CoV Urbani / Binding of serum 37 to looped/cyclic peptides of protein M of SARS-CoV Urbani / Binding of serum 6 to linear peptides of protein X3 of SARS-CoV Urbani / Binding of serum 37 to linear peptides of protein X3 of SARS-CoV Urbani / Binding of serum 37 to looped/cyclic peptides of protein X3 of SARS-CoV Urbani / Binding of serum 6 to linear peptides of protein X4 of SARS-CoV Urbani / Binding of serum 37 to linear peptides of protein X4 of SARS-CoV Urbani / Binding of serum 37 to looped/cyclic peptides of protein X4 of SARS-CoV Urbani / Binding of serum 6 to linear peptides of protein X5 of SARS-CoV Urbani / Binding of serum 37 to linear peptides of protein X5 of SARS-CoV Urbani / Binding of serum 37 to looped/cyclic peptides of protein X5 of SARS-CoV Urbani / Binding of serum 6 to linear peptides of protein N of SARS-CoV Urbani / Binding of serum 37 to linear peptides of protein N of SARS-CoV Urbani / Binding of serum 6 to linear peptide (PEPSCAN-ELISA) / Binding of serum 1a to looped/cyclic peptides of protein N of SARS-CoV Urbani / Binding of serum 1b to looped/cyclic peptides of protein N of SARS-CoV Urbani / Binding of serum 2 to looped/cyclic peptides of protein N of SARS-CoV Urbani / Binding of serum 6 to looped/cyclic peptides of protein N of SARS-CoV Urbani / Binding of serum 37 to looped/cyclic peptides of protein N of SARS-CoV Urbani / Binding of serum 62 to looped/cyclic peptides of protein N of SARS-CoV Urbani / Binding of serum London to looped/cyclic peptides of protein N of SARS-CoV Urbani / Binding of serum SARS-green to looped/cyclic peptides of protein N of SARS-CoV Urbani: unit not given here

Sequence	Binding of a rabbit serum to linear peptides of protein N of SARS-CoV Urbani (Rabbit serum linear peptides) [1]	Binding of a rabbit serum to looped/cyclic peptides of protein N of SARS-CoV Urbani (Rabbit serum looped peptides) [1]	Binding of antibody 03-018 to linear peptides of the N protein of SARS-CoV Urbani [2]	Binding of antibody 03-018 to looped/cyclic peptides of the N protein of SARS-CoV Urbani [2]	Binding of serum 1a to linear peptides of protein N of SARS-CoV Urbani [4]	Binding of serum 1a to looped/cyclic peptides of protein N of SARS-CoV Urbani [4]	Binding of serum 1b to linear peptides of protein N of SARS-CoV Urbani [4]	Binding of serum 1b to looped/cyclic peptides of protein N of SARS-CoV Urbani [4]	Binding of serum 2 to linear peptides of protein N of SARS-CoV Urbani [4]	Binding of serum 2 to looped/cyclic peptides of protein N of SARS-CoV Urbani [4]	Binding of serum 6 to linear peptides of protein N of SARS-CoV Urbani [4]	Binding of serum 6 to looped/cyclic peptides of protein N of SARS-CoV Urbani [4]	Binding of serum 37 to linear peptides of protein N of SARS-CoV Urbani [4]	Binding of serum 37 to looped/cyclic peptides of protein N of SARS-CoV Urbani [4]	Binding of serum 62 to linear peptides of protein N of SARS-CoV Urbani [4]	Binding of serum 62 to looped/cyclic peptides of protein N of SARS-CoV Urbani [4]	Binding of serum London to linear peptides of protein N of SARS-CoV Urbani [4]	Binding of serum London to looped/cyclic peptides of protein N of SARS-CoV Urbani [4]	Binding of serum SARS-green to linear peptides of protein N of SARS-CoV Urbani [4]	Binding of serum SARS-green to looped/cyclic peptides of protein N of SARS-CoV Urbani [4]	further results
DGKMKELSPRWYFYY	0.1	0.6	0.1	0.2	0.2	0.4	0.1	0.3	0.2	0.5	0.1	0.4	0.5	0.8	0.5	0.7	0.4	0.5	0.4	0.4	Binding of Control Serum Blood-Bank to Looped peptides [3]: 0.8; Binding of Control serum Blood-bank to linear peptides [3]: 0.8; Binding of Control serum LUMC to linear peptides [3]: 0.6; Binding of Control serum LUMC to looped peptides [3]: 0.7; Binding of serum SARS-yellow to linear peptides of protein N of SARS-CoV Urbani [4]: 0.5; Binding of serum SARS-yellow to looped/cyclic peptides of protein N of SARS-CoV Urbani [4]: 0.5
DHIGTRNPNNNAATV	0.1	0.5	0.1	0.3	0.3	0.5	0.1	0.4	0.3	0.8	0.2	0.5	0.7	1.1	0.7	0.8	0.5	0.7	0.5	0.5	Binding of Control Serum Blood-Bank to Looped peptides [3]: 0.9; Binding of Control serum Blood-bank to linear peptides [3]: 0.8; Binding of Control serum LUMC to linear peptides [3]: 0.7; Binding of Control serum LUMC to looped peptides [3]: 1.0; Binding of serum SARS-yellow to linear peptides of protein N of SARS-CoV Urbani [4]: 0.7; Binding of serum SARS-yellow to looped/cyclic peptides of protein N of SARS-CoV Urbani [4]: 0.6
DKKKKTDEAQPLPQR	0.1	0.3	0.1	0.2	0.2	0.2	0.1	0.1	0.2	0.2	0.2	0.1	0.6	0.4	0.6	0.3	0.5	0.3	0.5	0.3	Control Serum Blood-Bank Looped peptides [3]: 0.5; Control serum Blood-bank linear peptides [3]: 0.8; Control serum LUMC linear peptides [3]: 0.6; Control serum LUMC looped peptides [3]: 0.4; Binding of serum SARS-yellow to linear peptides of protein N of SARS-CoV Urbani [4]: 0.6; Binding of serum SARS-yellow to looped/cyclic peptides of protein N of SARS-CoV Urbani [4]: 0.3

Reference: US20070128217A1 (priority 2003, published 2007)
